Patent publication US11524966B1 (Valo Early Discovery, Inc., priority 2017, dated 2022)

Molecular target: T1, USP28 (His-tagged USP28-FL-mammalian) (Homo sapiens, UniProt Q96RU2)
T1 construct: Expression of USP28 (1-1077)-TEV-6*His (pTT5 vector); made in house; host or cells: Expi293f cells (pTT5 vector)
T1 sequence (Q96RU2 1-1077): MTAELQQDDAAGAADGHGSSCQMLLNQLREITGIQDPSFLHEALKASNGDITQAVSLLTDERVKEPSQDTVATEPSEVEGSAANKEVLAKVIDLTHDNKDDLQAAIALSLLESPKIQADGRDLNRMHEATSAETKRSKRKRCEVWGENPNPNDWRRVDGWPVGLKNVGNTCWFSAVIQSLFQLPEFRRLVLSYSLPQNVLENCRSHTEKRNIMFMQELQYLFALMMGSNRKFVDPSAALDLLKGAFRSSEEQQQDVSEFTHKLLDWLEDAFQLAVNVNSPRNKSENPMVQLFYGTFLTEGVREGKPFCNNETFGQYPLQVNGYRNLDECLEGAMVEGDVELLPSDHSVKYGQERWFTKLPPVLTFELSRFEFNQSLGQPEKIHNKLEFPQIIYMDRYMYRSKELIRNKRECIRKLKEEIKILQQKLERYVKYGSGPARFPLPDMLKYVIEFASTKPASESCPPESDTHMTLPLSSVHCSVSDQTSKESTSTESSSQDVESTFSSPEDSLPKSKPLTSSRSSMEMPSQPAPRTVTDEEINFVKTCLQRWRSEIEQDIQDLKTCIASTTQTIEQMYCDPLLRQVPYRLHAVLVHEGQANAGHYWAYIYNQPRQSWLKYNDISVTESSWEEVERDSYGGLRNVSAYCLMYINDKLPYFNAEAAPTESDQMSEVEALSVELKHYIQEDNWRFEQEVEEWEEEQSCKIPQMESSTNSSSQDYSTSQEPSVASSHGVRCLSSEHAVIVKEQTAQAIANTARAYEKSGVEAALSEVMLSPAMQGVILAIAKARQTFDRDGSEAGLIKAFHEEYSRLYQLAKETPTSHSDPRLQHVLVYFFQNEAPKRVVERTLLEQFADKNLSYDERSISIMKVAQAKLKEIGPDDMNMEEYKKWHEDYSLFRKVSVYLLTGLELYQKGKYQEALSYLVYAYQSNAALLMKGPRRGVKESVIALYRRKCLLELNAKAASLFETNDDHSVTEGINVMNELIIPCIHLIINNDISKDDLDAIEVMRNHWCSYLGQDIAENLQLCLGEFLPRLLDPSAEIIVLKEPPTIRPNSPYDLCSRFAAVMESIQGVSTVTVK
Test: Ubiquitin-Rhodamine 110 Assay for USP28 Activity, Example A-1(a)
Assay type: biochemical
Details: Ubiquitin-Rhodamine 110 assay, Example A-1(a); read-out: USP28 A-1(a) IC50 range
Description: Example A-1(a): Biochemical Assay: Ubiquitin-Rhodamine 110 Assay for USP28 Activity
The assay was performed in a final volume of 9 μL in assay buffer containing 20 mM Tris-HCl (pH 8.0, (1M Tris-HCl, pH 8.0 solution; Corning 46-031-CM)), 3 mM BME (2-Mercaptoethanol; Sigma 63689-25ML-F), 0.03% BGG (0.22 μM filtered, Sigma, G7516-25G), and 0.01% Triton X-100 (Sigma, T9284-10L). Nanoliter quantities of 10-point, 3-fold serial dilution in DMSO was pre-dispensed into 1536 assay plates (Corning, #3724BC) for a final test concentration of 25 μM to 1.3 nM, top to lowest dose, respectively. Enzyme USP28, construct His-tagged USP28-FL-mammalian, (protein expression and purification procedure described below). Concentration and incubation times were optimized for the maximal signal-to-background while maintaining initial velocity conditions at a fixed substrate concentration. The final concentration of the enzyme in the assay was 75 μM. Final substrate (Ub-Rh110; Ubiquitin-Rhodamine 110, UbiQ-126) concentration was 25 nM with [Ub-Rh110]<<Km. 3 μL of 2× enzyme was added to assay plates (pre-stamped with compound) preincubated with […] for 30 minutes and then 3 μL of 2×Ub-Rh110 was added to assay plates. Plates were incubated for 45 minutes at room temperature before addition of 3 μL of stop solution (final concentration of 10 mM citric acid (Sigma, 251275-500G)). Fluorescence was read on the Envision (Excitation at 485 nm and Emission at 535 nm; Perkin Elmer) or on the PheraSTAR (Excitation at 485 nm and Emission at 535 nm; BMG Labtech).
Procedure for the Protein Expression and Purification for Construct His-Tagged USP28-FL-Mammalian
Expression of USP28 (1-1077)-TEV-6*His (pTT5 vector) was carried out in Expi293f cells (sequence derived from uniprot ID: Q96RU2-1). Cells were re-suspended in lysis buffer B 50 mM Bicine, pH 8.0, 20 mM NaCl, 5% glycerol, 0.1% CHAPS, 5 mM β-ME, 1 mM PMSF, 1 ug/ml Leupeptin, 1 ug/ml Pepstatin) and lysed by sonication. Insoluble material was removed by centrifugation and the supernatant was loaded onto a Ni-NTA column (GE Healthcare) equilibrated with Ni Buffer A (50 mM Bicine, pH 8.0, 20 mM NaCl, 5% glycerol, 0.1% CHAPS, 5 mM β-ME.) and washed with Ni Buffer A+20 mM imidazole until A280 reached baseline. The protein was eluted with Ni Buffer B (50 mM Bicine, pH 8.0, 20 mM NaCl, 5% glycerol, 0.1% CHAPS, 5 mM β-ME, 300 mM imidazole.). The protein was further purified using a Superdex™ 200 10/300 GL column (GE Healthcare) equilibrated with 50 mM Bicine, pH 8.0, 20 mM NaCl, 5% glycerol, 0.1% CHAPS, 5 mM β-ME. The protein was concentrated to 2.5 mg ml^−1, flash-frozen in liquid N2 and stored at −80° C.
For assay formats Example A-1(a), A-1(b), and A-2, data were reported as percent inhibition compared with control wells based on the following equation: % inh=1−((FLU−AveLow)/(AveHigh−AveLow)) where FLU=measured Fluorescence, AveLow=average Fluorescence of no enzyme control (n=16), and AveHigh=average Fluorescence of DMSO control (n=16). IC50 values were determined by curve fitting of the standard 4 parameter logistic fitting algorithm included in the Activity Base software package: IDBS XE Designer Model 205. Data is fitted using the Levenburg Marquardt algorithm.

| Structure (SMILES) | IC50 |
| --- | --- |
| Cc1ccc2c(N)c(C(=O)N[C@@H]3CCc4nc(N5C[C@H](OC(C)C)[C@@H](N)C5)ncc4C3)sc2n1 [Example 272, 3-amino-N-[(6R)-2-[(3S,4S)-3-amino-4-(propan-2-yloxy)pyrrolidin-1-yl]-5,6,7,8-tetrahydroquinazolin-6-yl]-6-methylthieno[2,3-b]pyridine-2-carboxamide] | 200 to 2000 nM |
| CO[C@H]1CN(c2ncc3c(n2)CC[C@H](NC(=O)c2sc4nc(C)cc(C)c4c2N)C3)C[C@@H]1N [Example 273, 3-amino-N-[(6S)-2-[(3S,4S)-3-amino-4-methoxypyrrolidin-1-yl]-5,6,7,8-tetrahydroquinazolin-6-yl]-4,6-dimethylthieno[2,3-b]pyridine-2-carboxamide] | > 2000 nM |
| Cc1ccc2c(N)c(C(=O)N[C@H]3CCc4nc(N5CCN[C@@H](C(F)F)C5)ccc4C3)sc2n1 [Example 375, 3-amino-N-[(6S)-2-[(3R)-3-(difluoromethyl)piperazin-1-yl]-5,6,7,8-tetrahydroquinolin-6-yl]-6-methylthieno[2,3-b]pyridine-2-carboxamide] | 50 to 200 nM |
| Cc1ccc2c(N)c(C(=O)N[C@H]3COc4cc(N5C[C@@H](CF)[C@@H](N)C5)ccc4C3)sc2n1 [Example 423, 3-amino-N-[(3R)-7-[(3R,4R)-3-amino-4-(fluoromethyl)pyrrolidin-1-yl]-3,4-dihydro-2H-1-benzopyran-3-yl]-6-methylthieno[2,3-b]pyridine-2-carboxamide] | 1 to 50 nM |
| Cc1ccc2c(N)c(C(=O)N[C@H]3CCc4nc(N5C[C@@H](N)[C@H](C(F)F)C5)ncc4C3)sc2n1 [Example 381, 3-amino-N-[(6S)-2-[(3S,4R)-3-amino-4-(difluoromethyl)pyrrolidin-1-yl]-5,6,7,8-tetrahydroquinazolin-6-yl]-6-methylthieno[2,3-b]pyridine-2-carboxamide] | 200 to 2000 nM |
| CCn1ccc2cc(C(=O)N[C@H]3CCc4nc(N5C[C@@H](N)[C@H](C(F)F)C5)ccc4C3)cnc21 [Example 371, N-[(6S)-2-[(3S,4R)-3-amino-4-(difluoromethyl)pyrrolidin-1-yl]-5,6,7,8-tetrahydroquinolin-6-yl]-1-ethyl-1H-pyrrolo[2,3-b]pyridine-5-carboxamide] | 200 to 2000 nM |
| CCn1ccc2cc(C(=O)N[C@H]3CCc4nc(N5C[C@H](N)C6(COC6)C5)ccc4C3)cnc21 [Example 403, N-[(6S)-2-[(8R)-8-amino-2-oxa-6-azaspiro[3.4]octan-6-yl]-5,6,7,8-tetrahydroquinolin-6-yl]-1-ethyl-1H-pyrrolo[2,3-b]pyridine-5-carboxamide] | > 2000 nM |
| Cc1ccc2c(N)c(C(=O)N[C@@H]3CCc4cc(N5CCNCC5)ncc4C3)sc2n1 (single isomer, unassigned) [Example 32-2] | 200 to 2000 nM |
| Cc1ccc2c(N)c(C(=O)N[C@H]3COc4nc(N5C[C@H](C(F)F)[C@@H](N)C5)ccc4C3)sc2n1 [Example 378, 3-amino-N-[(3R)-7-[(3R,4S)-3-amino-4-(difluoromethyl)pyrrolidin-1-yl]-2H,3H,4H-pyrano[2,3-b]pyridin-3-yl]-6-methylthieno[2,3-b]pyridine-2-carboxamide] | 50 to 200 nM |
| COC[C@H]1[C@H](N)CCN1c1ccc2c(n1)CC[C@H](NC(=O)c1sc3nc(C)ccc3c1N)C2 [Example 419, 3-amino-N-[(6S)-2-[(2R,3R)-3-amino-2-(methoxymethyl)pyrrolidin-1-yl]-5,6,7,8-tetrahydroquinolin-6-yl]-6-methylthieno[2,3-b]pyridine-2-carboxamide] | 50 to 200 nM |
| Cc1ccc2c(N)c(C(=O)N[C@H]3COc4cc(N5C[C@H](N)[C@H]6OCC[C@H]65)ccc4C3)sc2n1 [Example 426, N-[(3R)-7-[(3aR,6S,6aR)-6-amino-hexahydro-2H-furo[3,2-b]pyrrol-4-yl]-3,4-dihydro-2H-1-benzopyran-3-yl]-3-amino-6-methylthieno[2,3-b]pyridine-2-carboxamide] | 1 to 50 nM |
| Cc1ccc2c(N)c(C(=O)N[C@H]3CCc4cc(N5CCNCC5)ncc4C3)sc2n1 (single isomer, unassigned) [Example 32-1] | 50 to 200 nM |
| CO[C@H]1CN(c2cc3c(cn2)C[C@@H](NC(=O)c2sc4nc(C)ccc4c2N)CO3)C[C@@H]1N [Example 179, 3-amino-N-[(3R)-7-[(3S,4S)-3-amino-4-methoxypyrrolidin-1-yl]-2H,3H,4H-pyrano[3,2-c]pyridin-3-yl]-6-methylthieno[2,3-b]pyridine-2-carboxamide] | 1 to 50 nM |
| CCn1ccc2cc(C(=O)N[C@H]3CCc4nc(N5C[C@H](C(F)F)[C@@H](N)C5)ccc4C3)cnc21 [Example 370, N-[(6S)-2-[(3R,4S)-3-amino-4-(difluoromethyl)pyrrolidin-1-yl]-5,6,7,8-tetrahydroquinolin-6-yl]-1-ethyl-1H-pyrrolo[2,3-b]pyridine-5-carboxamide] | 200 to 2000 nM |
| CN[C@H]1CN(c2ccc3c(n2)CC[C@H](NC(=O)c2sc4nc(C)ccc4c2N)C3)C[C@@H]1C(F)F [Example 376, 3-amino-N-[(6S)-2-[(3S,4R)-3-(difluoromethyl)-4-(methylamino)pyrrolidin-1-yl]-5,6,7,8-tetrahydroquinolin-6-yl]-6-methylthieno[2,3-b]pyridine-2-carboxamide] | 50 to 200 nM |
| CCn1ccc2cc(C(=O)N[C@H]3CCc4nc(N5C[C@@H](N)C6(COC6)C5)ccc4C3)cnc21 [Example 404, N-[(6S)-2-[(8S)-8-amino-2-oxa-6-azaspiro[3.4]octan-6-yl]-5,6,7,8-tetrahydroquinolin-6-yl]-1-ethyl-1H-pyrrolo[2,3-b]pyridine-5-carboxamide] | 200 to 2000 nM |
| Cc1ccc2c(N)c(C(=O)N[C@H]3CCc4nc(N5C[C@H](CF)[C@@H](N)C5)ccc4C3)sc2n1 [Example 384, 3-amino-N-[(6S)-2-[(3R,4S)-3-amino-4-(fluoromethyl)pyrrolidin-1-yl]-5,6,7,8-tetrahydroquinolin-6-yl]-6-methylthieno[2,3-b]pyridine-2-carboxamide] | 50 to 200 nM |
